Article PMC6093661, “Vitamin E hydroquinone is an endogenous regulator of ferroptosis via redox control of 15-lipoxygenase” (PLoS ONE, 2018)
“And” between values parts separate entries of the source, which are not always exact repeats. Identical values can stand only once.

What was measured:
[1] = test system: Mouse striatal Q7 cells (STHdhQ7/Q7); test: RSL3 ferroptosis cell rescue (cellular survival assay, CellTiter-Glo); settings: for EC50: Mus musculus, 18 h, read-out: RSL3 Ferroptosis Cell Assay Average EC50, Q7 cells, RSL3 2 μM, 18 h co-treatment, CellTiter-Glo 2.0
Q7 cells [2] = test: Cellular quantification of αTCC in Q7 cells (LC-MS/MS, succinate capping); assay type: in vitro ADME, mouse; settings: 6 technical replicates in each of 4 experiments
Description: Due to poor ionization of αTCC, the succinate capping method was used for quantification of the succinate ester derivative formed by cell lysis with 100 mg/mL succinic anhydride in 95:5 (acetonitrile:triethylamine).
Q7 cells were cultured in standard culture medium for 18 hours prior to compound addition. After the specified treatment time, the culture medium was removed and adherent cells were washed with PBS. The wash was removed and adherent cells were harvested by adding 1 mL of 100 mg/mL succinic anhydride in 95:5 (acetonitrile:triethylamine) followed by immediate cell scrapping. After cell scrapping, samples were transferred to a 1.5 mL Eppendorf tube, vortexed for 15 seconds, and kept on wet ice until all samples were harvested. […]
Samples were analyzed using a developed method on a Shimadzu 30AD using micro-flow with a Shimadzu SIL-30AC autosampler, and coupled to an AB Sciex 6500+ QTRAP mass spectrometer. […] Analyzer parameters were optimized for each compound using a combination of manual tuning and compound optimization. αTCC was measured as αTCC-succinate. […]
A Phenomenex Kinetex C18 (2.1 x 50 mm, 1.3 µm) column using a reverse phase gradient mobile phase method was used for chromatographic separation. […] Data were analyzed using Sciex Analyst Chromatography software, version 1.6.2 and Sciex MultiQuant software. […]

[3] = target: T1, Rabbit 15-lipoxygenase (rLOX15) (Oryctolagus cuniculus, UniProt P12530); test: Lipoxygenase enzyme inhibition assay; assay type: biochemical; settings: for IC50: 50 μM arachidonic acid substrate; for activity at 100 µM: compound 100 μM, read-out: 15-Lipoxygenase Enzyme Assay % activity at 100 μM
T1 construct: purchased Enzo Life Sciences, Inc. BML-PL015
T1 sequence (P12530 1-663): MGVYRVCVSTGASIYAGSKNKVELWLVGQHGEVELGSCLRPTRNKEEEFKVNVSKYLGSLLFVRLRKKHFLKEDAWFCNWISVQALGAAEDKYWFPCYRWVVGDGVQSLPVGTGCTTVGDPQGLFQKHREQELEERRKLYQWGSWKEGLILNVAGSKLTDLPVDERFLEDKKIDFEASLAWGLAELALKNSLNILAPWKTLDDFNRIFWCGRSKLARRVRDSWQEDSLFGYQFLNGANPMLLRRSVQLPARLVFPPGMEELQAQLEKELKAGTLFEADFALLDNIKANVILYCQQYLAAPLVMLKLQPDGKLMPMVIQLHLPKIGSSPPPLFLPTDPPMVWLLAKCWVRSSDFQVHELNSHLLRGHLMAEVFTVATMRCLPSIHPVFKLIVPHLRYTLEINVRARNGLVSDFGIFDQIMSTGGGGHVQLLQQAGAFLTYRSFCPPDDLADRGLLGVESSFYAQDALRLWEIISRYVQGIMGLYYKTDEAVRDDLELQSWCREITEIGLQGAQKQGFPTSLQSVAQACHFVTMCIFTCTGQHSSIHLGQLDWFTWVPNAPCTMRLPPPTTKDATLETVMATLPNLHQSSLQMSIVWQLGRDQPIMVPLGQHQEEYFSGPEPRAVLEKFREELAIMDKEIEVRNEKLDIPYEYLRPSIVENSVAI
Description: Rabbit 15-lipoxygenase (rLOX15, part number BML-PL015, lot number 3-P9009a) was obtained from Enzo Life Sciences, Inc. Sodium cholate (part number C6445, lot number 094K0209) was obtained from Sigma-Aldrich.
Stock solutions of test compounds were prepared in DMSO and then diluted to final assay concentrations in cholate mix such that final cholate and DMSO concentrations were maintained at 0.2%.

[4] = Radical-trapping antioxidant (RTA) activity assay in DOPC liposomes; settings: for Radical Trapping Assay AUC (Rel. Control): 50 μM compound, 2 mol% in DOPC liposomes, BODIPY 581/591 C11 quenching, liposome-only control = 1
[5] = ORAC (oxygen radical absorbance capacity) assay; settings: average of 25 and 12.5 μM compound; mean, SEM, n = 6
Description: ORAC assay kits were purchased from Cell Biolabs. Assays were performed per the manufacturer’s instructions for lipophilic samples with minor modifications. DMSO stock solutions of compounds were diluted in an anaerobic glovebox to final concentrations of 25 and 12.5 μM in triplicate. A standard curve of Trolox® between 0–100 μM in triplicate per concentration was also generated on each assay plate. Diluted compounds and standards were removed from the glovebox and reactions initiated by addition of aerobic fluorescein reagent and radical initiator. Fluorescein fluorescence was monitored at excitation wavelength of 480 nm and emission wavelength of 520 nm every minute for one hour. AUC analysis was performed as described in the kit protocol. The “Trolox equivalents” at each concentration of test compound were calculated and the average Trolox equivalents at the two compound concentrations are presented. The errors were determined by propagating errors from the SEMs of the triplicate determinations to the averages across the two triplicate determinations.

[6] = target: T2, Soybean 15-lipoxygenase (SLO) (Glycine max, UniProt P08170); test: EPR spectroscopy of lipoxygenase active-site iron redox state; assay type: biochemical; settings: SLO oxidised with lipid-OOH set to 100% Fe3+; addition of compound
T2 construct: purchased Cayman Chemical 60700
T2 sequence (P08170 1-839): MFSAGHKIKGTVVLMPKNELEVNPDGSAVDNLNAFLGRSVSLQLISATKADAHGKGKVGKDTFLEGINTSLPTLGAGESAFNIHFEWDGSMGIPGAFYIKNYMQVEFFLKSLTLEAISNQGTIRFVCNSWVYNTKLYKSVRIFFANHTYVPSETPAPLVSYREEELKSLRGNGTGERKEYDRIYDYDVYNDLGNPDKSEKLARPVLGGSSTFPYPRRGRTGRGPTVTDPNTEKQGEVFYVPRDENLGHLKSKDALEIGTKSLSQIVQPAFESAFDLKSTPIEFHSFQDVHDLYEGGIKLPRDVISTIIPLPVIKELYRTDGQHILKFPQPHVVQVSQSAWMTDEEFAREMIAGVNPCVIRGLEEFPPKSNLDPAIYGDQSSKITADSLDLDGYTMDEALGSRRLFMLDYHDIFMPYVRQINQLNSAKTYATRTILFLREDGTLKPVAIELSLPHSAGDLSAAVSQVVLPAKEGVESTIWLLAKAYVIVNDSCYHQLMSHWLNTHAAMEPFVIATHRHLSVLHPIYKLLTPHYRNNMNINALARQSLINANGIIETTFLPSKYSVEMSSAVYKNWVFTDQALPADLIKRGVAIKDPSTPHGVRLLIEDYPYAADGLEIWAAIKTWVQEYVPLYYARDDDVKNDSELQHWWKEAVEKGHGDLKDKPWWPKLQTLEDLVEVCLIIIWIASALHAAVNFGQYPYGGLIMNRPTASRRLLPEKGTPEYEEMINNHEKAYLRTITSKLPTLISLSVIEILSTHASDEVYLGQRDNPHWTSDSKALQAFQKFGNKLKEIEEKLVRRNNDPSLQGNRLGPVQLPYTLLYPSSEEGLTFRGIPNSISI
Description: Lipoxygenase: Soybean 15-lipoxygenase (SLO) was buffer exchanged into 50 mM borate buffer, pH 9.0 containing 10% (v/v) glycerol. The resulting protein solution was concentrated to approximately 100 μM, based upon the supplier’s activity per mL and specific activity per mg. The active-site iron oxidation state was further evaluated by EPR under three treatment conditions: 1) No treatment, 2) oxidation with 3-fold molar excess of lipid hydroperoxide (final concentration of 300 μM) from an ethanol stock, 3) oxidation with 3-fold molar excess of lipid hydroperoxide followed by 10-fold molar excess of αTHQ or αT3HQ (final concentration of 1 mM) from a DMSO stock. All samples contained the same final concentrations of ethanol and DMSO as sample 3. The EPR spectra of buffer alone were also evaluated to allow for baseline subtraction.
CW-EPR spectra were recorded at 150 K on a Bruker ELEXYS E540 spectrometer fitted with an X-band microwave bridge, a Super High Sensitivity Resonator (SHQ), and a Nitrogen VT apparatus. The spectra were recorded at 9.43 GHz with 1.002 mW microwave power, 10 G modulation amplitude, 100 kHz modulation frequency, 25 scans.

Q7 cells [7] = test: Cellular lipid oxidation assay (BODIPY 581/591 C11, RSL3-treated Q7 cells); assay type: cell-based, mouse; settings: RSL3 2 μM, 6-point titration, time-lapse microscopy
Description: Ferroptosis was induced by RSL3 (2 μM final concentration) in Q7 cells as described above. The protective activity of co-treated compounds was assessed also as described above. The rate of cellular lipid oxidation after GPX4 inhibition was assessed by monitoring the time-dependent changes in green fluorescence of cells pre-labeled with BODIPY™ 581/591 C11 dye (5 μM, 30-minute labeling period; Thermo Fisher/Invitrogen) using the IncuCyte S3 live-cell imaging apparatus (Sartorius) using a 10x objective. Cells (three images per field; at least three replicate wells per condition) were imaged once hourly for up to 18 hours after compound and RSL3 addition. Quantification of cell images was performed using the IncuCyte Zoom software using the Basic Analyzer tool which utilized an algorithm that calculated the total green-positive area per well where “green-positive” was defined as 1.45 times the local background-subtracted fluorescent signal. After a 2-3-hour lag period post-RSL3 treatment, the cellular green fluorescence signal began increasing. The rate of change in total green-positive area per well from 3–9 hours post-compound treatment was calculated, then expressed relative to that observed in the RSL3-only control treatment group, which was defined as 100%.

Q7 cells [8] = test: Intracellular quantification of αT, αTQ and αTHQ in Q7 cells (LC-MS/MS, succinate capping); settings: all cases tested (basal, αT- or αTQ-supplemented)

Structure (SMILES)	EC50 [1] [µM]	rescue at 30 μM ([1]; Q7 cells, RSL3 2 μM, 30 μM highest concentration tested, mean ± SD, N = 7) [%]	cellular exposure of αTCC (Q7 cells [2]) [µM]	inhibition of rabbit 15-LO enzyme activity ([3]; arachidonic acid as substrate, up to 100 μM)	IC50 ([3]; rabbit 15-LO) [µM]	activity at 100 µM ([3]; rabbit 15-LO) [%]	Radical Trapping Assay AUC (Rel. Control) [4]	RTA AUC fold greater than αTQ and αTHQ ([4]; DOPC liposomes, AUC relative to liposome only control)	ORAC Antioxidant Activity Assay Trolox Equiv. [5]	decrease in the SLO-Fe3+ signal [6] [%]	fold more potent than αT in preventing ferroptotic cell death ([1]; Q7 cells, RSL3, EC50 ratio vs αT) [fold]	effect on RSL3-induced lipid oxidation (BODIPY 581/591 C11 oxidation) (Q7 cells [7])	15-LO inhibitory potency fold compared with αTQ, αT, or αTCC ([3]; rabbit 15-LO) [fold]	cellular αTHQ exposures exceed those of αTQ (Q7 cells [8])
Cc1c(C)c2c(c(C)c1O)CCC(C)(CCCC(C)CCCC(C)CCCC(C)C)C2 (stereo not shown) [αTCC, 1,3,4,6-Tetramethyl-6-(4,8,12-trimethyltridecyl)-5,6,7,8-tetrahydronaphthalen-2-ol]	> 30	42 ± 21	> 50	did not	> 100	77	4.706	2.5–4 fold	0.075 Trolox Equiv. and 0.075 ± 0.008 Trolox Equiv.					
Cc1c(C)c(O)c(CC[C@](C)(O)CCC[C@H](C)CCC[C@H](C)CCCC(C)C)c(C)c1O [αTHQ, α-tocopherol hydroquinone]	0.09 ± 0.03				2.45	15	1.855		0.106 Trolox Equiv.	50	57	prevented	> 40	3- to 4 fold
